Results published in ChEMBL document CHEMBL1201862, “PubChem BioAssay data set” (2004).
The source made the active and inactive calls.

Columns and labels:
[1] = tested on: Streptococcus sp. 'group A'; assay: Streptococcus pyogenes SK(-)GAS viability under kanamycin – luminescence, BacTiterGlo, confirmation, counter-screen for streptokinase expression inhibitor project, dose response (AID 1900); assay type: functional, organism-based
Streptokinase A = biological target: T1, Streptokinase A (Streptococcus pyogenes serotype M1, UniProt P10520); assay: viability-normalized secreted streptokinase activity reduction – plasminogen activation absorbance, OD405, dose response (AID 1914); assay type: functional, Streptococcus pyogenes M1 GAS;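 further: secreted streptokinase activity via plasminogen activation per viability signal from cell pellet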
T1 sequence (P10520 whole entry): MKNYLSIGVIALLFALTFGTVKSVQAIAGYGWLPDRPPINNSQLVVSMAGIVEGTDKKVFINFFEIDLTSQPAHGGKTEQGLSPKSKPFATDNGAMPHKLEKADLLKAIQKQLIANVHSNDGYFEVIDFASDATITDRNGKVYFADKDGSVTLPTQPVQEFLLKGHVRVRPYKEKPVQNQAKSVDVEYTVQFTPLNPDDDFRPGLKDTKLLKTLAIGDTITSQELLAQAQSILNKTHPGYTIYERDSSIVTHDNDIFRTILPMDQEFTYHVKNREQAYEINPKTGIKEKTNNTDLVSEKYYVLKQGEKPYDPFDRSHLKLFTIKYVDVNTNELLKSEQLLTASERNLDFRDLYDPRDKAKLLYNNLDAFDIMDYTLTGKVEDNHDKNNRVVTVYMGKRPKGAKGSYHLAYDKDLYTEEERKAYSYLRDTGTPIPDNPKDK

[2] = biological target: T2, Calpain-2 catalytic subunit (Sus scrofa, UniProt P43367); assay: m-calpain protease blockers, concentration series – biochemical, fluorogenic peptide substrate, dose response (AID 1420); assay type: functional
T2 sequence (P43367 whole entry): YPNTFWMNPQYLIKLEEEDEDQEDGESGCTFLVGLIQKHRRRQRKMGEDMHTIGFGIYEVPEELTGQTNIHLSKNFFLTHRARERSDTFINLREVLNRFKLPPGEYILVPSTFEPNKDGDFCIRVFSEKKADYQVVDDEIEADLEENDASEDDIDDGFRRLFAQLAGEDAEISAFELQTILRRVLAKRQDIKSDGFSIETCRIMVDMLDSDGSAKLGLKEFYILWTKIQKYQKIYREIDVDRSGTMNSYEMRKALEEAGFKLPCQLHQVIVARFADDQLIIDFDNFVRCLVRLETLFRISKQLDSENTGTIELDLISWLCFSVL

[3] = biological target: Induced myeloid leukemia cell differentiation protein Mcl-1 (Homo sapiens, UniProt Q07820); assay type: functional
Streptococcus = assay: GAS UMAA2166 growth inhibition – luminescence, BacTiterGlo, counter-screen for streptokinase expression inhibitor project, dose response (AID 1915); assay type: functional, organism-based;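 further: potency for reduction of bacterial viability or growth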
[4] = biological target: T3, Microphthalmia-associated transcription factor (Homo sapiens, UniProt O75030); assay: reducers of TRPM1 reporter luminescence, concentration series – cell-based, SK-MEL-5, cherry-picked, set 3, MITF inhibitor project, dose response (AID 493073); assay type: functional;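 further: SK-MEL-5 melanoma cells with luciferase driven by the MITF target TRPM1 promoter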
T3 sequence (O75030 whole entry): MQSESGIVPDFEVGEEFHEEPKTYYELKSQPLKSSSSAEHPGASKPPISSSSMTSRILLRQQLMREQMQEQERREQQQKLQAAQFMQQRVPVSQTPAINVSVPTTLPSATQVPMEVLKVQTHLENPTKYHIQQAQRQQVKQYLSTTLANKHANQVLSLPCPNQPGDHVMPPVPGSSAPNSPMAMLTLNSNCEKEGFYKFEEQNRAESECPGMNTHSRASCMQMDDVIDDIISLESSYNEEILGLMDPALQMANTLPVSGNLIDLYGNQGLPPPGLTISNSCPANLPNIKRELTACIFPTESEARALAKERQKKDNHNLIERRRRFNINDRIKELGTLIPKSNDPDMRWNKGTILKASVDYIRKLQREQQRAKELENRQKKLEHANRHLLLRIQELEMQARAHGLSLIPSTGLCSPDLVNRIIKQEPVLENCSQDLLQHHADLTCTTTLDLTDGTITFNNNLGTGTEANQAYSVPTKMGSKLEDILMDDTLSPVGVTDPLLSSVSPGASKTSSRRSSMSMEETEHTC

[5] = blockers of bursicon-stimulated LGR2 cAMP reporter – cell-based, HEK293, CRE-luciferase reporter, cherry pick, set 2, dose response (AID 743343); assay type: functional;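 further: transfected cells were stimulated with diluted bursicon conditioned medium after compound addition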
[6] = blockade of melanocortin 4 receptor signaling – cell-based, plate reader, cherry pick, counter-screen for LGR2 antagonist project, dose response (AID 743444); assay type: functional;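 further: transfected HEK 293 cells stimulated with alpha-MSH peptide; potency of inhibitors of the alpha-MSH evoked signal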
Estrogen receptor = biological target: T4, Estrogen receptor (Homo sapiens, UniProt P03372);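 further: potency for inhibiting coactivator peptide recruitment to the receptor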
T4 sequence (P03372 whole entry): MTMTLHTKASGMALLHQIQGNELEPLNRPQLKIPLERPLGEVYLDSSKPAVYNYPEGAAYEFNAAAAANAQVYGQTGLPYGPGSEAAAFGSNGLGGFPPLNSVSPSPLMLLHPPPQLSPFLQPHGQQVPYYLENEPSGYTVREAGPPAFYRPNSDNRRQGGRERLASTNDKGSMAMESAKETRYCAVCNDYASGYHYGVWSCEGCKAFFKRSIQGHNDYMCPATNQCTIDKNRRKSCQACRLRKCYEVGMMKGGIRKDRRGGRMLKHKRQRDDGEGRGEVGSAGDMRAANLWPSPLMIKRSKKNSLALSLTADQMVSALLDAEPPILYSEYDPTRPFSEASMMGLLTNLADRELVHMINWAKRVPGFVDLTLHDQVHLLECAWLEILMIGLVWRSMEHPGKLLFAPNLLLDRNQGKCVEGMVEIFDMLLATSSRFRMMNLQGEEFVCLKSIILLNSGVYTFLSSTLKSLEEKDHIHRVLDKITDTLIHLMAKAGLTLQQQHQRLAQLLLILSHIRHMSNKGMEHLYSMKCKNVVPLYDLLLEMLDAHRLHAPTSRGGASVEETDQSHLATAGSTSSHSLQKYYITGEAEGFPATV

[7] = viability of uninfected HEp-2 cells – cell-based, HTS, cytotoxicity control for RSV inhibitor project, dose response (AID 2410); assay type: functional; details: human respiratory syncytial virus
cells [8] = assay: cells
[9] = biological target: Eukaryotic translation initiation factor 4H (Homo sapiens, UniProt Q15056); assay: eIF4H binding inhibition – biochemical, uHTS, fluorescence polarization, translation initiation inhibitor project, primary screen (AID 2012)
[10] = biological target: Polyadenylate-binding protein 1 (Homo sapiens, UniProt P11940); assay: blockers of PABP interaction with poly(A) – biochemical, fluorescence polarization, […] (AID 2014)
[11] = Trypanosoma cruzi growth suppression in host cells – NIH3T3 host cells, beta-gal luminescence, confirmation (AID 2044); assay type: functional, cell-based;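 further: intracellular parasites grown in NIH/3T3 mouse fibroblasts as host cells; luminescent beta-galactosidase reporter signal from transgenic T. cruzi replicating inside host cells; inhibitors lower the luminescence signal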
[12] = NIH3T3 cell viability loss – ATP luminescence, mouse fibroblasts, counter-screen, dose response (AID 2010); assay type: functional, cell-based;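 further: cells exposed to compound for about 90 hours before reading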
[13] = biological target: T5, Short transient receptor potential channel 4 (Mus musculus, UniProt Q9QUQ5); assay: block of DAMGO-driven TRPC4 calcium entry – cell-based, HEK293 TRPC4/mu-opioid, Fluo-4 calcium, dose response (AID 434942); assay type: functional;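 further: potency of inhibitors blocking the TRPC4 calcium response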
T5 sequence (Q9QUQ5 whole entry): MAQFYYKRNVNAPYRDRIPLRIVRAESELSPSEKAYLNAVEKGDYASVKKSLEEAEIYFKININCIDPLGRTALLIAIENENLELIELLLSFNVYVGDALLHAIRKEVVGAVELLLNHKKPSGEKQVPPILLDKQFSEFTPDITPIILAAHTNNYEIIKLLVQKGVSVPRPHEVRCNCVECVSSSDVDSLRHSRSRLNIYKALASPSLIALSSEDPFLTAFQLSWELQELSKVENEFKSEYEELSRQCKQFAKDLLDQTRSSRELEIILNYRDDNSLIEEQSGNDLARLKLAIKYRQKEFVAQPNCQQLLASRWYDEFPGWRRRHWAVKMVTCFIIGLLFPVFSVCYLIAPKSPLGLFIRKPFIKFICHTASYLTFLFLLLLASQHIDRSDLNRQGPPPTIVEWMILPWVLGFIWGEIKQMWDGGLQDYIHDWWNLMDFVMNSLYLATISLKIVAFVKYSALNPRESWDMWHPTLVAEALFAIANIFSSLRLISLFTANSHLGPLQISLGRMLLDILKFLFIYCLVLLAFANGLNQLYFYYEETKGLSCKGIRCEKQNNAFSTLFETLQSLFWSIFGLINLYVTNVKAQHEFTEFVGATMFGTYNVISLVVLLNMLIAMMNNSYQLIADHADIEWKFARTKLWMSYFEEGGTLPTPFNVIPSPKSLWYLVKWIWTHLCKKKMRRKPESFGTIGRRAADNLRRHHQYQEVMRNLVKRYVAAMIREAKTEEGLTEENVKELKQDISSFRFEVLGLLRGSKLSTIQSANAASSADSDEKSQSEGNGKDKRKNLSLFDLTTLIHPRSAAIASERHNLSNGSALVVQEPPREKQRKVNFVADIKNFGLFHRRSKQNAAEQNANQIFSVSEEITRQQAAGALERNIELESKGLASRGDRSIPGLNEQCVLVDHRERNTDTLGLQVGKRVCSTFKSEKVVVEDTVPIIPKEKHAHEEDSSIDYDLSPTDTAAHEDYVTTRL

cells [14] = assay: cells; remark: listed apart in the source
[15] = biological target: Glyceraldehyde-3-phosphate dehydrogenase (Homo sapiens, UniProt P04406)
Bcl-2-related protein A1 [16] = biological target: T6, Bcl-2-related protein A1 (Mus musculus, UniProt Q07440); assay: small-molecule antagonists of Bfl-1/BH3 interaction – biochemical, TR-FRET, mouse Bfl-1, confirmation (AID 621);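 further: TR-FRET binding of GST-Bfl-1 to FITC-labelled Bid peptide via terbium antibody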
T6 sequence (Q07440 whole entry): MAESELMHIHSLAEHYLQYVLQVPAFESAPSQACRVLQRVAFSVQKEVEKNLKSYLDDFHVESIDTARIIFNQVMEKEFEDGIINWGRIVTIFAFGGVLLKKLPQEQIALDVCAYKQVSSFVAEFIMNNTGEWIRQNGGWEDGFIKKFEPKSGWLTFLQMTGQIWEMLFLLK

Bcl-2-related protein A1 [17] = biological target: T6, Bcl-2-related protein A1; assay: Bfl-1 binding inhibitors, SAR follow-up, biochemical, fluorescence polarization (AID 1070)

Glyceraldehyde-3-phosphate dehydrogenase, sequence (P04406 whole entry): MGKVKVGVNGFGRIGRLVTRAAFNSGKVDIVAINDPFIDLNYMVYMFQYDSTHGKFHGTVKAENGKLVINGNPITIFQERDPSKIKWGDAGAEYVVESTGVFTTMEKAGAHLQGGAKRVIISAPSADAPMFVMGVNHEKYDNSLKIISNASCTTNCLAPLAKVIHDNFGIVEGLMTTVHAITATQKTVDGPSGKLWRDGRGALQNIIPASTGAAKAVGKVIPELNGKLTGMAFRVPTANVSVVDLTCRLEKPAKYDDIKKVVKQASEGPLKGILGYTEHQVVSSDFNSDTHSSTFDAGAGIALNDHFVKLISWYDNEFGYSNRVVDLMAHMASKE
Polyadenylate-binding protein 1, sequence (P11940 whole entry): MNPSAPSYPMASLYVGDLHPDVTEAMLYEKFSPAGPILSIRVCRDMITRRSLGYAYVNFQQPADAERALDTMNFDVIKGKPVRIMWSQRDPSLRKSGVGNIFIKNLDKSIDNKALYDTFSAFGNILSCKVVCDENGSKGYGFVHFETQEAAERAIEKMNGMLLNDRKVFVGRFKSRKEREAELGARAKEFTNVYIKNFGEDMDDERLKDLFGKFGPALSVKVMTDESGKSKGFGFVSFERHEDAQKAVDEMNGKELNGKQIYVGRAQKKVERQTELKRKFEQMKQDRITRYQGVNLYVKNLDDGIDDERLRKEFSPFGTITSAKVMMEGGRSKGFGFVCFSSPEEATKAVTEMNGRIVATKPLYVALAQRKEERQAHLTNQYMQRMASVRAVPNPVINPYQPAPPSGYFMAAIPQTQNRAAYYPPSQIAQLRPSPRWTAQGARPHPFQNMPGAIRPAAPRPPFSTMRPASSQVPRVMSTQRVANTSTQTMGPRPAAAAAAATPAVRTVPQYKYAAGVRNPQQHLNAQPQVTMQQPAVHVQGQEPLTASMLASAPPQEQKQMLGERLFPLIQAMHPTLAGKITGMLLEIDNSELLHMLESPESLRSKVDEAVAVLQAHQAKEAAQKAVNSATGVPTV
Induced myeloid leukemia cell differentiation protein Mcl-1, sequence (Q07820 whole entry): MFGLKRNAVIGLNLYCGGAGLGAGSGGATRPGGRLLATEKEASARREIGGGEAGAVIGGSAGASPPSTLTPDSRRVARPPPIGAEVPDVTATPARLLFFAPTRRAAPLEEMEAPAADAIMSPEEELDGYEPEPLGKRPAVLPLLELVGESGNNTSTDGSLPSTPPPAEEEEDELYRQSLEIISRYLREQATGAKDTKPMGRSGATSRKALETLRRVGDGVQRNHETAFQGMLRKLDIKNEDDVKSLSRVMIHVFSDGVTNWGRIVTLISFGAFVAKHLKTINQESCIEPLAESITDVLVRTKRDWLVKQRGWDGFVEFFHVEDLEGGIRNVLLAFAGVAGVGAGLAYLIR

O=C(O)c1ccc(N/N=C/c2ccc(OC(=O)c3cccc(Cl)c3)cc2)cc1
EC50 [1]: 0.834 µM (active) | EC50 (Streptokinase A): > 150 µM (not active) | IC50 [2]: 3.04 µM (not active) | IC50 [3]: 8.08 µM (active) | EC50 (Streptococcus): 15.5 µM (active) | AC50 [4]: 3.21 µM (active) | AC50 [5]: 2.03 µM (active) | AC50 [6]: 1.21 µM (active)

CC(=O)c1cccc(NC(=O)Cc2cccs2)c1
IC50 (Estrogen receptor): 18.5 µM (active)

COc1cccc(NC(=O)CSc2nc3ccccc3nc2N2CCCC2)c1
CC50 [7]: 17.2 µM (active) | IC50 (cells [8]): 30.5 µM (active)

CCOC(=O)c1ccc2c(c1)[n+](CCO)c(C)n2CC
IC50 [9]: > 100 µM (inactive) | IC50 [10]: 3.29 µM (active)

Clc1ccc(C[n+]2cc(-c3ccccc3)n3c2CCC3)cc1Cl
EC50 [11]: < 0.1 µM (active) | EC50 [12]: > 30 µM (not active) | EC50 [13]: 3.76 µM (active) | EC50 (cells [14]): 0.004 µM (active)

O=C(CSc1nc2ccccc2c(=O)n1-c1ccccc1)NCC1CCCO1 (configuration not stated)
IC50 [9]: > 100 µM (inactive) | IC50 [10]: 6.35 µM (active)

CN(C)C1=C(Cl)C(=O)N(c2ccc(Cl)c(Cl)c2)C1=O
IC50 [15]: > 100 µM (not active) | IC50 (Bcl-2-related protein A1 [16]): 0.54 µM (active) | IC50 (Bcl-2-related protein A1 [17]): 0.419 µM (active)

CC(Oc1ccc(Cl)cc1Cl)C(=O)NNC(=O)C(=O)N1CCCCC1 (configuration not stated)
CC50 [7]: > 50 µM (active) | IC50 (cells [8]): 40.6 µM (active)

O=C1C(Cl)=C(N2CCOCC2)C(=O)N1c1cccc([N+](=O)[O-])c1
IC50 [15]: > 100 µM (not active) | IC50 (Bcl-2-related protein A1 [16]): 8.21 µM (active) | IC50 (Bcl-2-related protein A1 [17]): 9.68 µM (active)
